According to patent publication EP3072956A1, “Selective culture medium for polymyxin-resistant, gram-negative bacteria” (priority 2015, dated 2016):

Legend:
Experiment in all cases: MIC determination by broth microdilution (MHB-CA, CLSI)
Assay type in all cases: cell-based
A. baumannii = system: A. baumannii
Description: (§1) Determination of MIC values were performed by broth microdilution in Cation-Adjusted Mueller-Hinton broth (MHB-CA) according to the CLSI guidelines (Clinical and Laboratory Standards Institute). Polymyxin B and colistin (Sigma-Aldrich, Saint-Louis) were tested with or without Tween 80 over a range dilution from 0.12 to 128 µg/ml. The surfactant Tween 80, at a final concentration of 0.002%, prevents the binding of polymyxins to multi-array plastic panel. Actually, the use of Tween for determination of MIC of polymyxins is still debatable. MHB-CA broth and 5.10^5 CFU/ml of each tested strain were distributed in each well. Following the EUCAST breakpoints, strains were characterized as susceptible or resistant to polymyxins.

B. cepacia = settings: strain Bcep
Description: as §1

C. freundii = system: C. freundii
Description: as §1

E. cloacae = system: E. cloacae
Description: as §1

E. coli = system: E. coli
Description: as §1

H. alvei = settings: strain ER
Description: as §1

K. oxytoca = settings: strain C24
Description: as §1

K. pneumoniae = system: K. pneumoniae
Description: as §1

P. aeruginosa = system: P. aeruginosa
Description: as §1

P. mirabilis = settings: strain Pmir
Description: as §1

P. vulgaris = settings: strain Pvul
Description: as §1

S. maltophilia = system: S. maltophilia
Description: as §1

S. marcescens = settings: strain Smar
Description: as §1

Substance: colistin
- MIC (A. baumannii; strain 38B9, With Tween80): 0.25 mg/L
- MIC (A. baumannii; strain 38B9, Without Tween80): 0.5 mg/L
- MIC (A. baumannii; strain Aba6, With Tween80): 128 mg/L
- MIC (A. baumannii; strain Aba6, Without Tween80): 128 mg/L
- MIC (A. baumannii; strain C105, With Tween80): 0.12 mg/L
- MIC (A. baumannii; strain C105, Without Tween80): 0.5 mg/L
- MIC (B. cepacia; With Tween80): >128 mg/L
- MIC (B. cepacia; Without Tween80): >128 mg/L
- MIC (C. freundii; strain 38B2, With Tween80): 0.12 mg/L
- MIC (C. freundii; strain 38B2, Without Tween80): 0.12 mg/L
- MIC (C. freundii; strain C136, With Tween80): 0.12 mg/L
- MIC (C. freundii; strain C136, Without Tween80): 0.25 mg/L
- MIC (E. cloacae; strain 38A10, With Tween80): 0.12 mg/L
- MIC (E. cloacae; strain 38A10, Without Tween80): 0.12 mg/L
- MIC (E. cloacae; strain C28, With Tween80): 32 mg/L
- MIC (E. cloacae; strain C28, Without Tween80): 32 mg/L
- MIC (E. cloacae; strain C129, With Tween80): 0.12 mg/L
- MIC (E. cloacae; strain C129, Without Tween80): 0.12 mg/L
- MIC (E. cloacae; strain C144, With Tween80): 0.12 mg/L
- MIC (E. cloacae; strain C144, Without Tween80): 0.12 mg/L
- MIC (E. cloacae; strain HM, With Tween80): >128 mg/L
- MIC (E. cloacae; strain HM, Without Tween80): >128 mg/L
- MIC (E. coli; strain 36A6, With Tween80): 0.12 mg/L
- MIC (E. coli; strain 36A6, Without Tween80): 0.12 mg/L
- MIC (E. coli; strain 36D7, With Tween80): 0.12 mg/L
- MIC (E. coli; strain 36D7, Without Tween80): 0.25 mg/L
- MIC (E. coli; strain 38D6, With Tween80): 0.12 mg/L
- MIC (E. coli; strain 38D6, Without Tween80): 0.25 mg/L
- MIC (E. coli; strain 27563, With Tween80): 8 mg/L
- MIC (E. coli; strain 27563, Without Tween80): 16 mg/L
- MIC (E. coli; strain 27837, With Tween80): 8 mg/L
- MIC (E. coli; strain 27837, Without Tween80): 16 mg/L
- MIC (E. coli; strain 27850, With Tween80): 8 mg/L
- MIC (E. coli; strain 27850, Without Tween80): 16 mg/L
- MIC (E. coli; strain 27852, With Tween80): 8 mg/L
- MIC (E. coli; strain 27852, Without Tween80): 8 mg/L
- MIC (E. coli; strain 28509, With Tween80): 4 mg/L
- MIC (E. coli; strain 28509, Without Tween80): 4 mg/L
- MIC (E. coli; strain 30742, With Tween80): 4 mg/L
- MIC (E. coli; strain 30742, Without Tween80): 8 mg/L
- MIC (E. coli; strain ATCC 25922, With Tween80): 0.12 mg/L
- MIC (E. coli; strain ATCC 25922, Without Tween80): 0.25 mg/L
- MIC (E. coli; strain C140, With Tween80): 0.12 mg/L
- MIC (E. coli; strain C140, Without Tween80): 0.12 mg/L
- MIC (E. coli; strain Eco OmpC-OmpF-, With Tween80): 0.12 mg/L
- MIC (E. coli; strain Eco OmpC-OmpF-, Without Tween80): 0.12 mg/L
- MIC (H. alvei; With Tween80): 16 mg/L
- MIC (H. alvei; Without Tween80): 16 mg/L
- MIC (K. oxytoca; With Tween80): 64 mg/L
- MIC (K. oxytoca; Without Tween80): 64 mg/L
- MIC (K. pneumoniae; strain 12E2, With Tween80): 64 mg/L
- MIC (K. pneumoniae; strain 12E2, Without Tween80): 64 mg/L
- MIC (K. pneumoniae; strain 13G2, With Tween80): 32 mg/L
- MIC (K. pneumoniae; strain 13G2, Without Tween80): 64 mg/L
- MIC (K. pneumoniae; strain 18J1, With Tween80): 32 mg/L
- MIC (K. pneumoniae; strain 18J1, Without Tween80): 32 mg/L
- MIC (K. pneumoniae; strain 36A4, With Tween80): 0.12 mg/L
- MIC (K. pneumoniae; strain 36A4, Without Tween80): 0.12 mg/L
- MIC (K. pneumoniae; strain 36A5, With Tween80): 0.12 mg/L
- MIC (K. pneumoniae; strain 36A5, Without Tween80): 0.12 mg/L
- MIC (K. pneumoniae; strain 36A7, With Tween80): 0.12 mg/L
- MIC (K. pneumoniae; strain 36A7, Without Tween80): 0.25 mg/L
- MIC (K. pneumoniae; strain 38B7, With Tween80): 0.12 mg/L
- MIC (K. pneumoniae; strain 38B7, Without Tween80): 0.5 mg/L
- MIC (K. pneumoniae; strain 75b, With Tween80): 128 mg/L
- MIC (K. pneumoniae; strain 75b, Without Tween80): 128 mg/L
- MIC (K. pneumoniae; strain 1118, With Tween80): 64 mg/L
- MIC (K. pneumoniae; strain 1118, Without Tween80): 64 mg/L
- MIC (K. pneumoniae; strain 1515, With Tween80): 32 mg/L
- MIC (K. pneumoniae; strain 1515, Without Tween80): 64 mg/L
- MIC (K. pneumoniae; strain AF1b, With Tween80): 16 mg/L
- MIC (K. pneumoniae; strain AF1b, Without Tween80): 16 mg/L
- MIC (K. pneumoniae; strain BICb, With Tween80): >128 mg/L
- MIC (K. pneumoniae; strain BICb, Without Tween80): >128 mg/L
- MIC (K. pneumoniae; strain C1, With Tween80): 128 mg/L
- MIC (K. pneumoniae; strain C1, Without Tween80): 128 mg/L
- MIC (K. pneumoniae; strain C3, With Tween80): 32 mg/L
- MIC (K. pneumoniae; strain C3, Without Tween80): 32 mg/L
- MIC (K. pneumoniae; strain C7, With Tween80): >128 mg/L
- MIC (K. pneumoniae; strain C7, Without Tween80): >128 mg/L
- MIC (K. pneumoniae; strain C11, With Tween80): 128 mg/L
- MIC (K. pneumoniae; strain C11, Without Tween80): 64 mg/L
- MIC (K. pneumoniae; strain C12, With Tween80): 64 mg/L
- MIC (K. pneumoniae; strain C12, Without Tween80): 64 mg/L
- MIC (K. pneumoniae; strain C16, With Tween80): 64 mg/L
- MIC (K. pneumoniae; strain C16, Without Tween80): 64 mg/L
- MIC (K. pneumoniae; strain C21, With Tween80): 128 mg/L
- MIC (K. pneumoniae; strain C21, Without Tween80): 128 mg/L
- MIC (K. pneumoniae; strain C22, With Tween80): 64 mg/L
- MIC (K. pneumoniae; strain C22, Without Tween80): 32 mg/L
- MIC (K. pneumoniae; strain C25, With Tween80): 32 mg/L
- MIC (K. pneumoniae; strain C25, Without Tween80): 64 mg/L
- MIC (K. pneumoniae; strain C26, With Tween80): 128 mg/L
- MIC (K. pneumoniae; strain C26, Without Tween80): 128 mg/L
- MIC (K. pneumoniae; strain C27, With Tween80): >128 mg/L
- MIC (K. pneumoniae; strain C27, Without Tween80): >128 mg/L
- MIC (K. pneumoniae; strain C112, With Tween80): 0.12 mg/L
- MIC (K. pneumoniae; strain C112, Without Tween80): 0.5 mg/L
- MIC (K. pneumoniae; strain C115, With Tween80): 0.12 mg/L
- MIC (K. pneumoniae; strain C115, Without Tween80): 0.12 mg/L
- MIC (K. pneumoniae; strain C130, With Tween80): 0.12 mg/L
- MIC (K. pneumoniae; strain C130, Without Tween80): 0.5 mg/L
- MIC (K. pneumoniae; strain C132, With Tween80): 0.12 mg/L
- MIC (K. pneumoniae; strain C132, Without Tween80): 0.12 mg/L
- MIC (K. pneumoniae; strain Kp OmpK3 5-OmpK3 6-, With Tween80): 0.12 mg/L
- MIC (K. pneumoniae; strain Kp OmpK3 5-OmpK3 6-, Without Tween80): 0.12 mg/L
- MIC (K. pneumoniae; strain Sa, With Tween80): >128 mg/L
- MIC (K. pneumoniae; strain Sa, Without Tween80): 128 mg/L
- MIC (K. pneumoniae; strain T1b, With Tween80): 128 mg/L
- MIC (K. pneumoniae; strain T1b, Without Tween80): 128 mg/L
- MIC (K. pneumoniae; strain T4, With Tween80): 64 mg/L
- MIC (K. pneumoniae; strain T4, Without Tween80): 64 mg/L
- MIC (K. pneumoniae; strain T5, With Tween80): 64 mg/L
- MIC (K. pneumoniae; strain T5, Without Tween80): 32 mg/L
- MIC (P. aeruginosa; strain 38J8, With Tween80): 0.5 mg/L
- MIC (P. aeruginosa; strain 38J8, Without Tween80): 2 mg/L
- MIC (P. aeruginosa; strain ATCC 27853, With Tween80): 0.12 mg/L
- MIC (P. aeruginosa; strain ATCC 27853, Without Tween80): 0.5 mg/L
- MIC (P. aeruginosa; strain C111, With Tween80): 0.12 mg/L
- MIC (P. aeruginosa; strain C111, Without Tween80): 1 mg/L
- MIC (P. aeruginosa; strain C131, With Tween80): 0.25 mg/L
- MIC (P. aeruginosa; strain C131, Without Tween80): 1 mg/L
- MIC (P. aeruginosa; strain C133, With Tween80): 0.5 mg/L
- MIC (P. aeruginosa; strain C133, Without Tween80): 2 mg/L
- MIC (P. mirabilis; With Tween80): >128 mg/L
- MIC (P. mirabilis; Without Tween80): >128 mg/L
- MIC (P. vulgaris; With Tween80): >128 mg/L
- MIC (P. vulgaris; Without Tween80): >128 mg/L
- MIC (S. maltophilia; strain Sm2, With Tween80): >128 mg/L
- MIC (S. maltophilia; strain Sm2, Without Tween80): >128 mg/L
- MIC (S. maltophilia; strain SmA51, With Tween80): 16 mg/L
- MIC (S. maltophilia; strain SmA51, Without Tween80): 32 mg/L
- MIC (S. marcescens; With Tween80): >128 mg/L
- MIC (S. marcescens; Without Tween80): >128 mg/L
